Source: US20240246942A1, “KINASE INHIBITORS FOR THE TREATMENT OF NEURODEGENERATIVE DISEASES” (priority 2020, published 2024)

Columns and labels:
Test in all cases: biochemical
[1] = target: T1, panel of 374 wild-type kinases (Homo sapiens, UniProt P27361); details: read-out: % Enzyme Activity (relative to DMSO controls), ERK1
T1 construct: purchased Reaction Biology Corporation

[2] = target: T2, panel of 374 wild-type kinases (Homo sapiens, UniProt P07333); details: read-out: % Enzyme Activity (relative to DMSO controls), FMS
T2 construct: purchased Reaction Biology Corporation

[3] = target: T3, panel of 374 wild-type kinases (Homo sapiens, UniProt Q9UF33); details: EPHA6, read-out: % Enzyme Activity (relative to DMSO controls)
T3 construct: purchased Reaction Biology Corporation
T3 sequence (Q9UF33 23-1036): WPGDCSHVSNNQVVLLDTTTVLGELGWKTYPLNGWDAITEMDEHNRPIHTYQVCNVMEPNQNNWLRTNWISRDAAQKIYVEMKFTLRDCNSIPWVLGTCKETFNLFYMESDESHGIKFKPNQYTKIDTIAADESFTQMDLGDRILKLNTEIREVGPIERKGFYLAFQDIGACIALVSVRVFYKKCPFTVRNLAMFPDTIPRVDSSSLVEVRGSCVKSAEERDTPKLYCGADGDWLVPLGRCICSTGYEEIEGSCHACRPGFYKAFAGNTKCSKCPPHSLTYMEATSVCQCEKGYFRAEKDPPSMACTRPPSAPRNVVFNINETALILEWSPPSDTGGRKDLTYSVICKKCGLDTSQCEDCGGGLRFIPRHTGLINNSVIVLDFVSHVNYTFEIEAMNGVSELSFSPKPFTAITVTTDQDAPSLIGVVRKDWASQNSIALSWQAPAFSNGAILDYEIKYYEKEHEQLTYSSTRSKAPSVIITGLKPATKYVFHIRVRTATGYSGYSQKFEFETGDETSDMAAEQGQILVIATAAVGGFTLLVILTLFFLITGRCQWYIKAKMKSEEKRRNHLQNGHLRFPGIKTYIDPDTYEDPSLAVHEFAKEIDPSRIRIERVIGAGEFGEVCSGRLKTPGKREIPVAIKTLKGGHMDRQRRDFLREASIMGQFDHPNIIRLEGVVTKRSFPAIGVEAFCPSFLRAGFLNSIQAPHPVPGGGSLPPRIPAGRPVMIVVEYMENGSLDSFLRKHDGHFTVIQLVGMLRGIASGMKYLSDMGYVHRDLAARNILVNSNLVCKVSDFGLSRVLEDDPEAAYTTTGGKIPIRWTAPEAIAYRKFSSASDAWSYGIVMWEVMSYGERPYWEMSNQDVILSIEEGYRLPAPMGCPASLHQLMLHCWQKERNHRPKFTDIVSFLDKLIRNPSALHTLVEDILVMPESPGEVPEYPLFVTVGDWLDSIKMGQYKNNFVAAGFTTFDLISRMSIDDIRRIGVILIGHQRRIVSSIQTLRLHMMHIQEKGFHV

[4] = target: T4, panel of 374 wild-type kinases (Homo sapiens, UniProt Q8TF76); details: read-out: % Enzyme Activity (relative to DMSO controls), Haspin
T4 construct: purchased Reaction Biology Corporation
T4 sequence (Q8TF76 1-798): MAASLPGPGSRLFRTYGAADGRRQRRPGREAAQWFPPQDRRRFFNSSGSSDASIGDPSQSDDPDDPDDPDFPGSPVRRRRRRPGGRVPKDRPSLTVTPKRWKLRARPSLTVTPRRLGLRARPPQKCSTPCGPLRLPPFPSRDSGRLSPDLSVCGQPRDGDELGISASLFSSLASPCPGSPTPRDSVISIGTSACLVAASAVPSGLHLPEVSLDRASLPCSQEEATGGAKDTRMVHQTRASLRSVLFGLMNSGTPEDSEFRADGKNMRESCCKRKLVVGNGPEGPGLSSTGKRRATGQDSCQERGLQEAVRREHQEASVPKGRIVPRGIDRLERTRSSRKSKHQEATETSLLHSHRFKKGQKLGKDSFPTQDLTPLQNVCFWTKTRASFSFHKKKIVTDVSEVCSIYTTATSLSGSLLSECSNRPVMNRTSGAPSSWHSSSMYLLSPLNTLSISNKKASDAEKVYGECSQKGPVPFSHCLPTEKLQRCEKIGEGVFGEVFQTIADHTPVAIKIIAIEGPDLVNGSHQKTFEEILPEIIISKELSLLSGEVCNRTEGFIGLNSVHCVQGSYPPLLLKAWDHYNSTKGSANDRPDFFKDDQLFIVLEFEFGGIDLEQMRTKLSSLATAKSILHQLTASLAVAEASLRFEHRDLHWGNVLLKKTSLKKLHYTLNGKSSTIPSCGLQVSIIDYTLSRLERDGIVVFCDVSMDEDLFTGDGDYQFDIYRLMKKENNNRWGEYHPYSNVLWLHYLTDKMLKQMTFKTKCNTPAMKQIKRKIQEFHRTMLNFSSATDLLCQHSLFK

[5] = target: T5, panel of 374 wild-type kinases (Homo sapiens, UniProt P09619); details: read-out: % Enzyme Activity (relative to DMSO controls), kinase PDGFRb
T5 construct: purchased Reaction Biology Corporation

[6] = target: T6, panel of 374 wild-type kinases (Homo sapiens, UniProt P22455); details: for remaining activity at 5 µM: read-out: % Enzyme Activity (relative to DMSO controls), FGFR4
T6 construct: purchased Reaction Biology Corporation

[7] = target: T7, panel of 374 wild-type kinases (Homo sapiens, UniProt Q04912); details: read-out: % Enzyme Activity (relative to DMSO controls), kinase RON/MST1R
T7 construct: purchased Reaction Biology Corporation
T7 sequence (Q04912 25-1400): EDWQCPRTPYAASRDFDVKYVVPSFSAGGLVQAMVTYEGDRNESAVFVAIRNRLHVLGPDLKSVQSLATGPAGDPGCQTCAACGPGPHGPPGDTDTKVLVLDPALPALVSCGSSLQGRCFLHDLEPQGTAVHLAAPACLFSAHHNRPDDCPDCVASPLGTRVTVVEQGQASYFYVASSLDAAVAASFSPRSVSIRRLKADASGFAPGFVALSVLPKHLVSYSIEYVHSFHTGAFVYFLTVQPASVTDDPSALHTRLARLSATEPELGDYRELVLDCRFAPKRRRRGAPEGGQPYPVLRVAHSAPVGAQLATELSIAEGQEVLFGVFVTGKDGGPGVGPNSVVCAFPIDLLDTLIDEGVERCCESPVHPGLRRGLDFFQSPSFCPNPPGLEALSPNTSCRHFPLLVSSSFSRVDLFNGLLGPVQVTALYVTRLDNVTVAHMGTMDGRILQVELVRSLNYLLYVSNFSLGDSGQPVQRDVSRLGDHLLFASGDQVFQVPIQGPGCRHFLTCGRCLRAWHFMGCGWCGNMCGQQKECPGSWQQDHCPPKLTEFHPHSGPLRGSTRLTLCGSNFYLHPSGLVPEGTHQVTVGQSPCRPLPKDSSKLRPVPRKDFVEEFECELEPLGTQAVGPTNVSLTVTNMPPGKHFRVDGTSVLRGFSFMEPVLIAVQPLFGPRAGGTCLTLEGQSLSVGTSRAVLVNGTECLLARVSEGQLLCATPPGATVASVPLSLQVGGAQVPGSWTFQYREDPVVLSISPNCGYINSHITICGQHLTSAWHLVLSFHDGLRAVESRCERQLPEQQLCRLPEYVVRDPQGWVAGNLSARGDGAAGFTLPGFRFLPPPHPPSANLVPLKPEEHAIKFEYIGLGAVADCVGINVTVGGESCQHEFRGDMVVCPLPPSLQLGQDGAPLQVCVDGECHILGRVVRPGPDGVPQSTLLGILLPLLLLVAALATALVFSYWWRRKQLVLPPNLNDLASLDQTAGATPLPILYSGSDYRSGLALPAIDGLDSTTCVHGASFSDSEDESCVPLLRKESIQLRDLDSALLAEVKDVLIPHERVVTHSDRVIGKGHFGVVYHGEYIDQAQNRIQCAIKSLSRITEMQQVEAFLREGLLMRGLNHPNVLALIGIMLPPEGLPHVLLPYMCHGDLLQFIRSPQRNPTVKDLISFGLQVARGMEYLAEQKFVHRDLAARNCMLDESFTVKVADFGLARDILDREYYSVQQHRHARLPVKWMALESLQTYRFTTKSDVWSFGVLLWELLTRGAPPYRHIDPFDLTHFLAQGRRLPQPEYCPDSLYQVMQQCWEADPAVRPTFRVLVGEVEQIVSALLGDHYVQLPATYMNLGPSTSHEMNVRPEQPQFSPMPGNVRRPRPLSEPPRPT

T1 sequence (P27361 whole entry): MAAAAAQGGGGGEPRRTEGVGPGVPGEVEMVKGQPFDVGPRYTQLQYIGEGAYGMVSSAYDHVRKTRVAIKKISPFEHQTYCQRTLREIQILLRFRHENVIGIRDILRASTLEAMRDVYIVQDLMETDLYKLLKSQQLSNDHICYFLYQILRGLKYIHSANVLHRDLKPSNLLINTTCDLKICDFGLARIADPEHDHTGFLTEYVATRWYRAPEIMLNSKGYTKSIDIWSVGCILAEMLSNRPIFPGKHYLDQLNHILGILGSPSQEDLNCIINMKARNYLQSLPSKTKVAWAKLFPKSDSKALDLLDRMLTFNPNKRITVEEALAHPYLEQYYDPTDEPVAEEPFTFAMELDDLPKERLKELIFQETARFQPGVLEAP
T6 sequence (P22455 22-802): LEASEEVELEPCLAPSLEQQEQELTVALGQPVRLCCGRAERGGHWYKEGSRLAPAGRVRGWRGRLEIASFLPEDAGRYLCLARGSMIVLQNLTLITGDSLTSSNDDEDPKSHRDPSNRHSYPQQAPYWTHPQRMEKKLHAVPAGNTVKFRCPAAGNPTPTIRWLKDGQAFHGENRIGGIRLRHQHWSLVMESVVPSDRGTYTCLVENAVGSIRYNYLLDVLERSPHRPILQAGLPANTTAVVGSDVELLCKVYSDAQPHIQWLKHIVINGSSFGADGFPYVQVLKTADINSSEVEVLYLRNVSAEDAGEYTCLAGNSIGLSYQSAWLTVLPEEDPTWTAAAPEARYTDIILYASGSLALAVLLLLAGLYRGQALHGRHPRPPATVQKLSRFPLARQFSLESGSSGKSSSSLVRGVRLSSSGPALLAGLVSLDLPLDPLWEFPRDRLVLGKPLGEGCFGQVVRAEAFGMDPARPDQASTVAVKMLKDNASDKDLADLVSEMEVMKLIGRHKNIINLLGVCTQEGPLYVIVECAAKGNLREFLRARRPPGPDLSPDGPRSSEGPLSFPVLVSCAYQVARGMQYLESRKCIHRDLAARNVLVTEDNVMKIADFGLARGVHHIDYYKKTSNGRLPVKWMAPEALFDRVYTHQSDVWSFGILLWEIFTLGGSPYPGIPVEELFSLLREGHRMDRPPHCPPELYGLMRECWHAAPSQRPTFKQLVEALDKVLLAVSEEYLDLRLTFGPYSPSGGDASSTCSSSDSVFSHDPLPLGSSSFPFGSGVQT
T5 sequence (P09619 33-1106): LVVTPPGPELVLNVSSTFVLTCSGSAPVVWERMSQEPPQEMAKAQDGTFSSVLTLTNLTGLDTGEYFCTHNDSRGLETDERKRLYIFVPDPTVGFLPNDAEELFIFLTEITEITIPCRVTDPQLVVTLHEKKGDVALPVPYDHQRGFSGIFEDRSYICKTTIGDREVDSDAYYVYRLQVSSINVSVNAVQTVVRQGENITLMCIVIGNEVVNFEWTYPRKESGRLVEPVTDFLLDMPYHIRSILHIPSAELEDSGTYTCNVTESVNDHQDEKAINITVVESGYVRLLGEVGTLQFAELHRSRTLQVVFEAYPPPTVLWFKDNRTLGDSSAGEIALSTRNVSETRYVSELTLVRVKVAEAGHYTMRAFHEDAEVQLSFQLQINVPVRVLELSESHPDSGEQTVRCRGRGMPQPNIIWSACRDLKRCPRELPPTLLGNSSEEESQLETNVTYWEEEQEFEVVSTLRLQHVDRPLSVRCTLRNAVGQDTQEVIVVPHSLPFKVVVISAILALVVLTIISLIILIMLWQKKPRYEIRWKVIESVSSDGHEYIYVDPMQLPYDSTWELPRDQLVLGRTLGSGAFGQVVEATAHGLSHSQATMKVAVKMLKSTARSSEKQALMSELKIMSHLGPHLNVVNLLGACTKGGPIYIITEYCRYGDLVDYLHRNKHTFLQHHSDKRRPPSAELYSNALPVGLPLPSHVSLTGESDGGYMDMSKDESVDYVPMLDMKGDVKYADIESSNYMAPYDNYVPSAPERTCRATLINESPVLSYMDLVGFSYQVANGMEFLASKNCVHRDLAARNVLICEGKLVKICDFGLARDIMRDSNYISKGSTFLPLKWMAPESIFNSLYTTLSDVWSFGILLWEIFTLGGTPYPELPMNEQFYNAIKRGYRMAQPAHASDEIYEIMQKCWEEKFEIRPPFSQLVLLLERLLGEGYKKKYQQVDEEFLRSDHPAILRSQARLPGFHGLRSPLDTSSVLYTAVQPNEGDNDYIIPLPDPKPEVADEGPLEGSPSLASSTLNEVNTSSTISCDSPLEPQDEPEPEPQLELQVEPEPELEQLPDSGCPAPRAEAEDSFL
T2 sequence (P07333 20-972): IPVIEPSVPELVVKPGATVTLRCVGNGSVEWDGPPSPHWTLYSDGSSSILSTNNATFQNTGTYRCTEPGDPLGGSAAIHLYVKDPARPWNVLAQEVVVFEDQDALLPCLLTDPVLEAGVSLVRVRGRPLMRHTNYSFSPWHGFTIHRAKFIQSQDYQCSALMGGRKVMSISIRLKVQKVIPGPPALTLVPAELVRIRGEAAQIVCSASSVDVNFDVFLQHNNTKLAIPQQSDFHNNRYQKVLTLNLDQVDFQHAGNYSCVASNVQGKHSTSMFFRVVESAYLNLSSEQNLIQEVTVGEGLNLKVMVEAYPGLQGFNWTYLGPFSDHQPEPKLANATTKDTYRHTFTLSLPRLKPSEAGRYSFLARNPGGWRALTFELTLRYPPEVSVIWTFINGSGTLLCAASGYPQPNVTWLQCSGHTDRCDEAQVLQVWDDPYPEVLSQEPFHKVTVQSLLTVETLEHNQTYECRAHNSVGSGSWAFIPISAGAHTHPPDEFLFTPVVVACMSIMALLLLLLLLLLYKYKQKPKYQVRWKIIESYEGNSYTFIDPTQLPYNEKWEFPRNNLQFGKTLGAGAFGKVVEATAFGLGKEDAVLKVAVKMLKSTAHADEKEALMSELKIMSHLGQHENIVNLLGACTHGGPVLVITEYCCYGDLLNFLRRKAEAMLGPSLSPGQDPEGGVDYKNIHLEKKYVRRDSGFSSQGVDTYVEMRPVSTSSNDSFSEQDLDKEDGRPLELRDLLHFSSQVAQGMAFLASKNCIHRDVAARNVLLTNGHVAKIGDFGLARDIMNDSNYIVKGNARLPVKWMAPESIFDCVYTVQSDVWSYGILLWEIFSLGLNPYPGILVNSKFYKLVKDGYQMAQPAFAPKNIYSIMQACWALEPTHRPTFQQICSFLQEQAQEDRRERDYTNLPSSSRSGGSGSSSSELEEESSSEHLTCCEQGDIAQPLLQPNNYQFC

Row | Structure (SMILES) | remaining activity at 10 µM ([1]; 10 uM) [%] | remaining activity at 10 µM ([2]; 10 uM) [%] | remaining activity at 10 µM ([3]; 10 uM) [%] | remaining activity at 10 µM ([4]; 10 uM) [%] | remaining activity at 10 µM ([5]; 10 uM) [%] | remaining activity at 10 µM ([6]; FGFR4, 10 uM, read-out: % Enzyme Activity (relative to DMSO controls)) [%] | remaining activity at 10 µM ([7]; 10 uM) [%] | remaining activity at 5 µM [1] [%] | remaining activity at 5 µM [2] [%] | remaining activity at 5 µM [3] [%] | remaining activity at 5 µM [4] [%] | remaining activity at 5 µM [5] [%] | remaining activity at 5 µM [6] [%] | remaining activity at 5 µM [7] [%]
1 | Cc1sc(C(=O)NC2COC2)cc1-n1cc(NC(=O)Nc2c(F)cccc2Cl)cn1 [Compound 27, 4-(4-(3-(2-chloro-6-fluorophenyl)ureido)-1H-pyrazol-1-yl)-5-methyl-N-(oxetan-3-yl)thiophene-2-carboxamide] | 107 | 103 | 80.2 | 92.4 | 97.9 | 96.8 | 96.9 |  |  |  |  |  |  | 
2 | O=C(Nc1cnn(-c2csc(C(=O)NC3COC3)c2)c1)Nc1c(F)cccc1Cl [Compound 25, 4-(4-(3-(2-chloro-6-fluorophenyl)ureido)-1H-pyrazol-1-yl)-N-(oxetan-3-yl)thiophene-2-carboxamide] |  |  |  |  |  |  |  | 92.4 | 98.9 | 95.7 | 111 | 101 | 99.6 | 100
3 | O=C(Nc1cnn(-c2csc(C(=O)NC3COC3)c2)c1)Nc1ccccc1Cl [Compound 17, 4-(4-(3-(2-chlorophenyl)ureido)-1H-pyrazol-1-yl)-N-(oxetan-3-yl)thiophene-2-carboxamide] |  |  |  |  |  |  |  | 92.8 | 105 | 99.5 | 112 | 107 | 88.2 | 108
